# Assay results: PubChem BioAssay (NCI)
#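 Briefly, cells in 96-well plates were exposed to five compound concentrations for 48 h, and endpoints were estimated by linear interpolation. TGI: total growth inhibition.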 Where a SMILES comes first, the peptide text is derived from it. The star is where a group is joined. Boc = CC(C)(C)OC(=O)*; OBn = c1ccc(CO*)cc1
# Tested on: DLD-1 colon
# Experiment: NCI tumour cell line growth inhibition, 48 h
row,Structure (SMILES),TGI
1,COc1cc2c[n+](C)c3c4cc5c(cc4ccc3c2cc1OC)OCO5,> 31.6 µM
2,COC1CC(C)C(OC)C2=CC(=O)C=C(NC(=O)/C(C)=C/C=C\C(C)C(OC(N)=O)/C(C)=C\C(C)C1OC)C2=O (stereo not given),2.58 µM
3,O=C1c2ccccc2C(O)(C(=O)O)C1(O)CC=C(Cl)Cl (stereo not given),> 125 µM
4,COC(=O)C(C)NP(=O)(N1CC1)N1CC1 (stereo not given),> 100 µM
5,Ic1ncnc2c1ncn2C1CCCO1 (stereo not given),> 100 µM

# Tested on: DMS 114 small cell lung
# Experiment: NCI tumour cell line growth inhibition, 48 h
row,Structure (SMILES),TGI
1,COc1cc2c[n+](C)c3c4cc5c(cc4ccc3c2cc1OC)OCO5,5.92 µM
2,COC1CC(C)C(OC)C2=CC(=O)C=C(NC(=O)/C(C)=C/C=C\C(C)C(OC(N)=O)/C(C)=C\C(C)C1OC)C2=O (stereo not given),17.8 µM
3,O=C1c2ccccc2C(O)(C(=O)O)C1(O)CC=C(Cl)Cl (stereo not given),> 125 µM
4,COC(=O)C(C)NP(=O)(N1CC1)N1CC1 (stereo not given),> 100 µM
5,Ic1ncnc2c1ncn2C1CCCO1 (stereo not given),> 100 µM

# Tested on: DMS 273 small cell lung
# Experiment: NCI tumour cell line growth inhibition, 48 h
row,Structure (SMILES),TGI
1,COc1cc2c[n+](C)c3c4cc5c(cc4ccc3c2cc1OC)OCO5,11.6 µM
2,O=C1c2ccccc2C(O)(C(=O)O)C1(O)CC=C(Cl)Cl (stereo not given),> 125 µM
3,COC(=O)C(C)NP(=O)(N1CC1)N1CC1 (stereo not given),> 100 µM
4,Ic1ncnc2c1ncn2C1CCCO1 (stereo not given),> 100 µM

# Tested on: HOP-18 NSCLC
# Experiment: NCI tumour cell line growth inhibition, 48 h
row,Structure (SMILES),TGI
1,COc1cc2c[n+](C)c3c4cc5c(cc4ccc3c2cc1OC)OCO5,93.6 µM
2,COC1CC(C)C(OC)C2=CC(=O)C=C(NC(=O)/C(C)=C/C=C\C(C)C(OC(N)=O)/C(C)=C\C(C)C1OC)C2=O (stereo not given),15.7 µM
3,O=C1c2ccccc2C(O)(C(=O)O)C1(O)CC=C(Cl)Cl (stereo not given),> 125 µM
4,Ic1ncnc2c1ncn2C1CCCO1 (stereo not given),> 100 µM

# Tested on: HOP-62 NSCLC
# Experiment: NCI tumour cell line growth inhibition, 48 h
row,Structure (SMILES),TGI
1,Cc1oc2c(c1C)S(=O)(=O)C(C#N)C(c1ccccc1)N2 (stereo not given),> 100 µM
2,CC(=O)Oc1cc2c(n(C)c1=O)-c1ccccc1C2,> 100 µM
3,Nc1nc(N)c2cc(Sc3ccc4nc(N)nc(N)c4c3)ccc2n1,> 100 µM
4,N#CC(C#N)N=Cc1ccncc1,> 100 µM
5,COc1ccc2cc(Oc3ccc(Cl)cc3)c(=O)oc2c1,> 100 µM
6,COc1ccc2c(c1)/C(=C\c1c(C)nc3n1CCS3)C(=O)N2,> 100 µM
7,COC(=O)C1=C(O)C(C(=O)OC)[C@]2(O)[C@H](C(=O)OC)[C@H]1C[C@@H](c1ccc(F)cc1)[C@H]2C(=O)OC (stereo not given in full),68.5 µM
8,CCN(CC)c1cc2c3c(c1)CCCN3CCC2,> 10 µM
9,CN(C)C=C1C(=O)c2c(Br)sc(Br)c2C1=O,91.4 µM
10,CC(=O)O[C@H]1CC[C@H]2[C@@H]3CCC4C(C)=NNC(=O)C4[C@H]3CC[C@]12C (stereo not given in full),57.6 µM
11,O=c1[nH]n(Cc2ccccc2Cl)c2ccc([N+](=O)[O-])cc12,> 100 µM
12,COc1cc2c[n+](C)c3c4cc5c(cc4ccc3c2cc1OC)OCO5,16.4 µM
13,O=c1[nH]c(C23CC4CC(CC(C4)C2)C3)cc2c1c(=O)oc1ccccc12,9.56 µM
14,CC1=NN(C(=O)CC(=O)Nc2ccc(C)cc2)C(=O)C1N=Nc1ccc(C(=O)O)cc1 (stereo not given),> 100 µM
15,CCOC(=O)CCC(NC(=O)c1ccc(CNc2nc3ccccc3nc2C(=O)OCC)cc1)C(=O)OCC (stereo not given),> 100 µM
16,CCN(CC)C(=C(C(Cl)=C(Cl)Cl)[N+](=O)[O-])N(CC)CC,> 100 µM
17,O=C1C(=O)c2c(oc(=O)c3ccccc23)-c2ccccc21,> 25 µM
18,CCOC(=O)C(C(=O)OCC)=C1NC2(c3ccccc3Nc3ccc(C)cc32)C(C#N)S1 (stereo not given),33.7 µM
19,CN1CCC2(CC1)SC[C@H]1C(=O)N(c3ccc(Cl)cc3)C(=O)N12,> 100 µM
20,COC(=O)Nc1nc2ccc(S(=O)(=O)NC(CC(C)C)C(=O)OC)cc2[nH]1 (stereo not given),> 100 µM
21,CC(C)=CCC[C@@H](C)C1=C(O)C(O)C(C)=C2N=C(c3ccccc3)C(=O)OC21 (stereo not given in full),8.5 µM
22,OC(CCN1CCCCC1)(c1ccccc1)c1ccccc1,> 100 µM
23,COC1CC(C)C(OC)C2=CC(=O)C=C(NC(=O)/C(C)=C/C=C\C(C)C(OC(N)=O)/C(C)=C\C(C)C1OC)C2=O (stereo not given),10.5 µM

row,Structure (SMILES),TGI
1,CC(C)(C)[Si](C)(C)O[C@@H](C(=O)OC1C=CCCC1)[C@@H](NC(=O)c1ccccc1)c1ccccc1 (stereo not given in full),> 100 µM
2,O=C(Nc1cccc2ccccc12)Nn1cnnc1,> 100 µM
3,Cc1oc2c(c1C)S(=O)(=O)C(C#N)=C(c1ccccc1)N2,> 100 µM
4,O=C1c2ccccc2C(O)(C(=O)O)C1(O)CC=C(Cl)Cl (stereo not given),> 125 µM
5,CCOC(=O)C1=CN/C(=C(/C)C(=O)OC)SC1C(=O)OCC (stereo not given),> 100 µM
6,Cc1ccc2c(c1)C(=O)/C(=N/Nc1ccc(Cl)cc1)CCO2,> 100 µM
7,CN(C)C=Nc1cccc2nsnc12,> 100 µM
8,CN(C)c1ccc(/C=N\NC(=O)c2ccccc2Nc2ccccc2C(=O)N/N=C/c2ccc(N(C)C)cc2)cc1,> 100 µM
9,CC(=O)O[C@@H]1CC[C@@]2(C)C(CC[C@H]3[C@@H]4CC[C@H]([C@H](C)CCc5nc6ccc(C)cc6[nH]5)[C@@]4(C)CC[C@@H]32)C1 (stereo not given in full),> 100 µM
10,C=C1C(=O)OC2/C=C(\CO)C3OC3C3OC3(C)CC(OC(=O)/C(=C/C)CO)C12 (stereo not given),> 100 µM
11,COc1cc(/C=C(\C#N)c2nc3ccccc3o2)ccc1O,52.8 µM
12,COc1ccc2cc(CNCCCCCCCCCCCCNCc3ccc4cc(OC)ccc4c3)ccc2c1,39.2 µM
13,COc1cccc(OC/C(N=Cc2cccnc2)=N/NC(=O)c2ccncc2)c1,> 100 µM
14,COC(=O)c1c(O)ccc2c1c1c(n2Cc2ccccc2)C(=O)c2ccccc2C1=O,38.8 µM
15,Cc1csc2nc3c(cnn3C)c(=S)n12,> 100 µM
16,COc1cc(S(=O)(=O)Nc2nc(-c3ccc(N4C(=O)CSC4c4cccs4)cc3)cs2)ccc1Cl (stereo not given),> 100 µM
17,C/C1=C/C(C)CC(C)OC(=O)C(C)NC(=O)C(Cc2ccc(O)c(I)c2)N(C)C(=O)CNC(=O)C(C)C1 (stereo not given),< 0.01 µM
18,COc1cc(S(=O)(=O)Nc2nc(-c3ccc(N4C(=O)C(CC(=O)O)SC4c4ccccc4O)cc3)cs2)ccc1Cl (stereo not given),> 100 µM
19,Cc1cc(C)nc(NS(=O)(=O)c2ccc(NNc3c4ccccc4nc4c(C(=O)Nc5ccc(S(=O)(=O)Nc6ncccn6)cc5)cccc34)cc2)n1,> 100 µM
20,COCC(N=CN1CCCc2ccccc2[C@@H]1CCCCl)C(C)(C)C (stereo not given in full),52.9 µM
21,Cc1ccc(-n2cnc3c(N)nc(N)nc32)cc1,> 100 µM
22,CNc1c2cccc(C)c2nc2c(C(=O)NCCN(C)C)cccc12,0.578 µM
23,O=C1CC(NC(=O)C(F)(F)F)c2c1csc2Br (stereo not given),> 100 µM

row,Structure (SMILES),TGI
1,Ic1ncnc2c1ncn2C1CCCO1 (stereo not given),> 100 µM
2,CC12CCC3[C@@H](CC3(C)C)C(O)(CCC1=O)C2 (stereo not given in full),> 100 µM
3,COc1ccc(Nc2nnc(CCCCCCCCc3nnc(Nc4ccc(OC)cc4)o3)o2)cc1,> 100 µM
4,COc1cc(OCc2ccc3nc(-c4ccccc4)c(Cl)nc3c2)cc(OC)c1OC,> 100 µM
5,CCC(Sc1cc(Cl)c(C)cc1S(=O)(=O)Nc1nc(N)nc(N(C)C)n1)C(=O)O (stereo not given),> 10 µM
6,O=C(N/N=C/c1ccc2c(c1)OCO2)Nc1ccccc1Cl,> 100 µM
7,C[C@]12C[C@H](c3ccccc3)Nc3ccccc3N1C(c1ccccc1)=NO2,> 100 µM
8,O=c1c(C=Nc2ccccc2Cl)c(O)n(-c2ccccc2)c(=O)n1-c1ccccc1,> 100 µM
9,CC1(C)C2CCC3=C(CCC4(C)C5C[C@](C)(C(=O)O)CC[C@]5(C)CC[C@]34C)[C@@]2(C)CC[C@@H]1O (stereo not given in full),31.3 µM
10,CCOC(=O)NNC(=O)C1CSC(c2ccccc2)N1C(C)=O (stereo not given),> 100 µM
11,Cc1ccc2nc(CN3CCCC(O)C3)cc(=O)n2c1 (stereo not given),> 100 µM
12,O=[n+]1c2ccccc2n([O-])c2ccccc21,> 100 µM
13,CC[C@](O)(CC(=O)O[C@H]1C(=O)O[C@@H]2C[C@H]3C(C)=CC(=O)[C@@H](O)[C@]3(C)[C@H]3[C@@]4(O)OC[C@]32[C@@H]1[C@@H](C)[C@H]4O)C(C)C,< 0.01 µM
14,CCOC(=O)C(SCCO)C(C(=O)OCC)n1cnc2c(N)ncnc21 (stereo not given),45.4 µM
15,CC(C)(C)O/C=C1/C(=O)OC2C[C@@H](O[Si](C)(C)C(C)(C)C)CC12 (stereo not given in full),> 100 µM
16,O=C1CC(CC(O)[C@@H]2CCCC[C@@H]2O)CC(=O)N1c1ccccc1 (stereo not given in full),> 100 µM
17,COc1ccc2nc3c([N+](=O)[O-])ccc4c3c(c2c1)N=CN4CCCN(C)C,15.1 µM
18,O=C1CC(=O)NC(=NN2C(=O)/C(=C/C(=O)c3ccco3)N=C2c2ccccc2)N1,> 100 µM
19,CCCCCCCCCCCCCCCCCCNc1ccn(C2OC(COP(=O)(O)OC3CC(n4cc(F)c(=O)[nH]c4=O)OC3COP(=O)(O)OCC3OC(n4ccc(N)nc4=O)C(O)C3O)C(O)C2O)c(=O)n1 (stereo not given),> 76.8 µM
20,OC1(CCc2ccccc2)COC(C(F)(F)F)(C(F)(F)F)C1 (stereo not given),> 100 µM
21,CCC(C)C(C(=O)N/N=C1/SCC(=O)N1c1ccccc1)C(=O)N/N=C1/SCC(=O)N1c1ccccc1 (stereo not given),> 100 µM
22,CC(C)C(NC(=O)C(Cc1ccccc1)NC(=O)OC(C)(C)C)C(=O)NCC(=O)OCc1ccccc1 (stereo not drawn) (Boc-Phe-Val-Gly-OBn; configuration not given here),35.6 µM

# Tested on: K-562 leukemia
# Experiment: NCI tumour cell line growth inhibition, 48 h
row,Structure (SMILES),TGI
1,CC(=O)Oc1cc2c(n(C)c1=O)-c1ccccc1C2,> 100 µM
2,Nc1nc(N)c2cc(Sc3ccc4nc(N)nc(N)c4c3)ccc2n1,> 100 µM
3,N#CC(C#N)N=Cc1ccncc1,> 100 µM
4,COc1ccc2cc(Oc3ccc(Cl)cc3)c(=O)oc2c1,> 100 µM
